Results: patent US10577329B2, “Fused-bicyclic aryl quinolinone derivatives as mutant-isocitrate dehydrogenase inhibitors” (FORMA Therapeutics, Inc., priority 2015, dated 2020)
pIC50: −log10 of the molar value. Where two headings read alike, the source gives them in different places.

Legend:
[1] = test system: HCT116 isogenic IDH1-R132C mutant cells; test: Cellular 2-HG assay using HCT116 mutant IDH1-R132C cells; format: cell-based; details: Homo sapiens, read-out: HCT116 IDH1 R132C IC50
Procedure: (§1) HCT116 isogenic IDH1-R132H and IDH1-R132C mutant cells were cultured in growth media (McCoy's 5A, 10% fetal bovine serum, 1× antibiotic-antimycotic solution and 0.3 mg/mL G418) in 5% CO2 in an incubator at 37° C. To prepare the assay, cells were trypsinized and resuspended in assay media (McCoy's 5A with no L-glutamine, 10% fetal bovine serum, 1× antibiotic-antimycotic solution and 0.3 mg/mL G418). An aliquot of 10,000 cells/100 μL was transferred to each well of a clear 96-well tissue culture plate. The cells were incubated in 5% CO2 at 37° C. in an incubator overnight to allow for proper cell attachment. An aliquot of 50 μL of compound containing assay media were then added to each well and the assay plate was kept in 5% CO2 at 37° C. in an incubator for 24 hours. The media was then removed from each well and 150 μL of a methanol/water mixture (80/20 v/v) was added to each well. The plates were kept at −80° C. freezer overnight to allow for complete cell lysis. An aliquot of 125 μL of extracted supernatant was analyzed by RapidFire high-throughout-mass spectrometry (Agilent) to determine the cellular 2-HG level. The IC50 of a given compound was calculated by fitting the dose response curve of cellular 2-HG inhibition at a given concentration with the four parameter logistic equation

[2] = test system: HCT116 isogenic IDH1-R132H mutant cells; test: Cellular 2-HG assay using HCT116 mutant IDH1-R132H cells; format: cell-based; details: Homo sapiens, read-out: HCT116 IDH1 R132H IC50
Procedure: as §1

[3] = biological target: IDH1-R132C recombinant protein (Homo sapiens, UniProt O75874, R132C); test: IDH1-R132C enzymatic assay (NADPH consumption, diaphorase/resazurin readout); format: biochemical; details: 10 nM IDH1-R132C, inhibition of NADPH consumption; read-out: Enzyme IDH1 R132C IC50
Procedure: (§2) Example 34—IDH1-R132H and IDH1-R132C Enzymatic Assay
(§3) Assays were performed in a 384-well black plate. An aliquot of 250 nL of compound was incubated with 10 μL of 30 nM IDH1-R132H or 10 nM IDH1-R132C recombinant protein in assay buffer (50 mM Tris pH=7.5, 150 mM NaCl, 5 mM MgCl2, 0.1% (w/v) Bovine Serum Albumin, and 0.01% Triton X-100) in each well at 25° C. for 15 minutes. After the plate was centrifuged briefly, an aliquot of 10 μL of 2 mM α-ketoglutarate and 20 μM NADPH solution prepared in assay buffer was then added to each well and the reaction was maintained at 25° C. for 45 minutes. An aliquot of 10 μL of diaphorase solution (0.15 U/mL diaphorase and 30 μM Resazurin in assay buffer) was added to each well. The plate was maintained at 25° C. for 15 minutes and then read on a plate reader with excitation and emission wavelengths at 535 nm and 590 nm, respectively. The IC50 of a given compound was calculated by fitting the dose response curve of inhibition of NADPH consumption at a given concentration with the four parameter logistic equation.

[4] = biological target: IDH1-R132H recombinant protein (Homo sapiens, UniProt O75874, R132H); test: IDH1-R132H enzymatic assay (NADPH consumption, diaphorase/resazurin readout); format: biochemical; details: 30 nM IDH1-R132H, inhibition of NADPH consumption; read-out: Enzyme IDH1 R132H IC50
Procedure: as §2, §3

[5] = HCT-116, cellular 2-HG inhibition, 24 hours, RapidFire mass spectrometry

Chain of IDH1-R132C recombinant protein (O75874 whole entry R132C): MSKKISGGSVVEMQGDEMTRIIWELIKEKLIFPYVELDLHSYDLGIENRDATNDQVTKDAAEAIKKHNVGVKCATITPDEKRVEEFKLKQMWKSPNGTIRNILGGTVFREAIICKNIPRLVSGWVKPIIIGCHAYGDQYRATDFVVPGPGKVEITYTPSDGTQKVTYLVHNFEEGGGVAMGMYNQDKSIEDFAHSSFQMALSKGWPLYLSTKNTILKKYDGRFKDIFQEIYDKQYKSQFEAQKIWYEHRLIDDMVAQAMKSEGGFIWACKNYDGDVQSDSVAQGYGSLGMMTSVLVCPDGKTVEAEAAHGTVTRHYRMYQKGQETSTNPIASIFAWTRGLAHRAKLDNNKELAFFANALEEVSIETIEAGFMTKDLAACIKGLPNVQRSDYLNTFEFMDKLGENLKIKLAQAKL
Chain of IDH1-R132H recombinant protein (O75874 whole entry R132H): as the sequence (O75874 whole entry R132C) above, with C132H counted along it

SMILES | pIC50 [1, 5] | pIC50 [2, 5] | pIC50 ([1]; HCT-116, 24 h) | pIC50 ([2]; HCT-116, 24 h) | pIC50 [3] | pIC50 [4]
C[C@H](Nc1ncc2oc(=O)n(C)c2n1)c1cc2cc(Cl)ccc2[nH]c1=O [Compound I-57, 6-chloro-3-[(1S)-1-({3-methyl-2-oxo-2H,3H-[1,3]oxazolo[4,5-d]pyrimidin-5-yl}amino)ethyl]-1,2-dihydroquinolin-2-one] |  |  | 6.00 to 7.00 | 6.00 to 7.00 |  | 
C[C@H](Nc1ncc2oc(=O)[nH]c2n1)c1cc2cc(Cl)ccc2[nH]c1=O [Compound I-56, 6-chloro-3-[(1S)-1-({2-oxo-2H,3H-[1,3]oxazolo[4,5-d]pyrimidin-5-yl}amino)ethyl]-1,2-dihydroquinolin-2-one] |  |  | < 5.00 | 5.00 to 6.00 |  | 
C[C@H](Nc1ncc2[nH]c(=O)n(C)c2n1)c1cc2cc(Cl)ccc2[nH]c1=O [Compound I-58, 6-chloro-3-[(1S)-1-[(9-methyl-8-oxo-8,9-dihydro-7H-purin-2-yl)amino]ethyl]-1,2-dihydroquinolin-2-one] |  |  | 5.00 to 6.00 | 6.00 to 7.00 |  | 
COc1cc2[nH]c(=O)c([C@H](C)Nc3ncc4c(n3)N(C)C(=O)OC4)cc2cc1Cl [Compound I-51, 6-chloro-7-methoxy-3-[(1S)-1-({1-methyl-2-oxo-1H,2H,4H-pyrimido[4,5-d][1,3]oxazin-7-yl}amino)ethyl]-1,2-dihydroquinolin-2-one] |  |  | > 7.00 | > 7.00 |  | 
C[C@H](Nc1ncc2cn[nH]c2n1)c1cc2cc(Cl)ccc2[nH]c1=O [Compound I-45, 6-chloro-3-[(1S)-1-({1H-pyrazolo[3,4-d]pyrimidin-6-yl}amino)ethyl]-1,2-dihydroquinolin-2-one] |  |  | 6.00 to 7.00 | 6.00 to 7.00 |  | 
COc1cc2[nH]c(=O)c(C(C)Nc3ncc4c(n3)N(C)C(=O)OC4)cc2cc1Cl (racemic) [Compound I-50, 6-chloro-7-methoxy-3-[1-({1-methyl-2-oxo-1H,2H,4H-pyrimido[4,5-d][1,3]oxazin-7-yl}amino)ethyl]-1,2-dihydroquinolin-2-one] |  |  | > 7.00 | > 7.00 | > 7.00 | > 7.00

Now from value to molecule, other results behind:

pIC50 [1, 5] | pIC50 [2, 5] | SMILES | pIC50 ([1]; HCT-116, 24 h) | pIC50 ([2]; HCT-116, 24 h) | pIC50 [3] | pIC50 [4]
5.00 to 6.00 | 6.00 to 7.00 | CC(C)Cn1c(=O)oc2cnc(N[C@@H](C)c3cc4cc(Cl)ccc4[nH]c3=O)nc21 [Compound I-55, 6-chloro-3-[(1S)-1-{[3-(2-methylpropyl)-2-oxo-2H,3H-[1,3]oxazolo[4,5-d]pyrimidin-5-yl]amino}ethyl]-1,2-dihydroquinolin-2-one] |  |  |  | 
6.00 to 7.00 | 6.00 to 7.00 | C[C@H](Nc1ncc2c(n1)N(C)C(=O)C2)c1cc2cc(Cl)ccc2[nH]c1=O [Compound I-61, 6-chloro-3-[(1S)-1-({7-methyl-6-oxo-5H,6H,7H-pyrrolo[2,3-d]pyrimidin-2-yl}amino)ethyl]-1,2-dihydroquinolin-2-one] |  |  |  | 
5.00 to 6.00 | 6.00 to 7.00 | C[C@H](Nc1ncc2c(n1)NC(=O)C2)c1cc2cc(Cl)ccc2[nH]c1=O [Compound I-60, 6-chloro-3-[(1S)-1-({6-oxo-5H,6H,7H-pyrrolo[2,3-d]pyrimidin-2-yl}amino)ethyl]-1,2-dihydroquinolin-2-one] |  |  |  | 
> 7.00 | > 7.00 | C[C@H](Nc1ncc2c(n1)N(C)C(=O)OC2)c1cc2cc(Cl)c(OCc3ccccn3)cc2[nH]c1=O [Compound I-48, 6-chloro-3-[(1S)-1-({1-methyl-2-oxo-1H,2H,4H-pyrimido[4,5-d][1,3]oxazin-7-yl}amino)ethyl]-7-(pyridin-2-ylmethoxy)-1,2-dihydroquinolin-2-one] |  |  |  | 
> 7.00 | > 7.00 | C[C@H](Nc1ncc2c(n1)N(C)C(=O)OC2)c1cc2cc(Cl)ccc2[nH]c1=O [Compound I-47, 6-chloro-3-[(1S)-1-({1-methyl-2-oxo-1H,2H,4H-pyrimido[4,5-d][1,3]oxazin-7-yl}amino)ethyl]-1,2-dihydroquinolin-2-one] |  |  |  | 
6.00 to 7.00 | > 7.00 | C[C@H](Nc1ncc2c(n1)NC(=O)OC2)c1cc2cc(Cl)ccc2[nH]c1=O [Compound I-49, 6-chloro-3-[(1S)-1-({2-oxo-1H,2H,4H-pyrimido[4,5-d][1,3]oxazin-7-yl}amino)ethyl]-1,2-dihydroquinolin-2-one] |  |  |  | 
